In article PMC9064588 (RSC Advances, 2019):

Target: α-glucosidase (Maltase EC 3.2.1.20)
Experiment: PNPG hydrolysis enzyme inhibition assay, absorbance at […] nm
Type: biochemical

IC50: 0.46 ± 0.01 µM
Structure (SMILES): Oc1cc(O)c2c(c1)O[C@@]1(c3ccc(O)c(O)c3)Oc3cc(O)c4c(c3[C@@H]2[C@H]1O)O[C@H](c1ccc(O)c(O)c1)[C@H](O)C4 [PCA2, Procyanidin A2]
